Assay results taken from ChEMBL document CHEMBL4138213, “Synthesis and biological characterization of ubenimex-fluorouracil conjugates for anti-cancer therapy” (Eur J Med Chem, 2018).
Activity calls are given as the source filed them. No cut-off for these calls is given here.

Assays:
PLC-PRF-5 [1] = assay: Antiproliferative activity against human PLC/PRF/5 cells after 48 hrs by MTT assay; details: PLC-PRF-5, 48 h
Aminopeptidase N = target: T1, Aminopeptidase N (Sus scrofa, UniProt P15145); assay: Inhibition of porcine kidney CD13 using L-leucine-p-nitroanilide as substrate preincubated for 5 mins followed by substrate addition measured after 30 mins
T1 sequence (P15145 whole entry): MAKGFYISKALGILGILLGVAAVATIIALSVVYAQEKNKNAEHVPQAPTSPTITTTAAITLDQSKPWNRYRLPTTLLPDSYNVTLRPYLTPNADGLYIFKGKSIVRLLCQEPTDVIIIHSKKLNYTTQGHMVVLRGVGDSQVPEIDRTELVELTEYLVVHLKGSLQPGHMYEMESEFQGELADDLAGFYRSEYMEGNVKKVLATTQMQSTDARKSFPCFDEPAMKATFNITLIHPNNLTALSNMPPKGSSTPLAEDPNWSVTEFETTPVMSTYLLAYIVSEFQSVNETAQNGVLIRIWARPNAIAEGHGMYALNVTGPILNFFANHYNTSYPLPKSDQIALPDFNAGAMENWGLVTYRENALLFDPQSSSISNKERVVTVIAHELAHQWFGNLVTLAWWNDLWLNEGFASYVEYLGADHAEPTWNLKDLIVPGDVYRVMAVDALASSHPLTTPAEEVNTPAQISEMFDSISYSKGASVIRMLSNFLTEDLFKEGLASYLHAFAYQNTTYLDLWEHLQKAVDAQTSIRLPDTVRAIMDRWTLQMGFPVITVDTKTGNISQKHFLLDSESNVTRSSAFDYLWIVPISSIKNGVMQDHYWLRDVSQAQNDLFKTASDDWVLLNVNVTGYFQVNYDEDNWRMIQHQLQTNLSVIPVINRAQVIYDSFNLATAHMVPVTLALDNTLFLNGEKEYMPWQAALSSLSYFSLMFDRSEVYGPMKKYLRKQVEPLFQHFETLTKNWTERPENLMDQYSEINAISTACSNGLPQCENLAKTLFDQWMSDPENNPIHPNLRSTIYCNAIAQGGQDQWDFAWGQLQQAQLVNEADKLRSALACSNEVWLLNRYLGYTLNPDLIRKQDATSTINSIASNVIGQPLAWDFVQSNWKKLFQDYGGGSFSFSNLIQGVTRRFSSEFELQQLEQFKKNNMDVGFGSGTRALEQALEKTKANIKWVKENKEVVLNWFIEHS

cells = details: Homo sapiens, ES-2, 48 h
Description: Antiproliferative activity against human ES2 cells after 48 hrs by MTT assay

[2] = (§1) MRT (0 to infinity) in Wistar rat at 80 mg/kg, iv after 0.05 to 24 hrs by HPLC-MS/MS analysis; format: ADME, organism-based; details: Wistar, in vivo
Rattus norvegicus [3] = assay: VRT (0 to infinity) in Wistar rat at 80 mg/kg, iv after 0.05 to 24 hrs by HPLC-MS/MS analysis; format: ADME, organism-based; details: in vivo
[4] = Cmax in Wistar rat at 80 mg/kg, iv after 0.05 to 24 hrs by HPLC-MS/MS analysis; format: ADME, organism-based; set-up: dose 80 mg/kg, route intravenous; details: in vivo
[5] = Apparent clearance in Wistar rat at 80 mg/kg, iv after 0.05 to 24 hrs by HPLC-MS/MS analysis; format: ADME, organism-based; details: in vivo, read-out: CL(app) (converted)
[6] = Drug level in Wistar rat plasma treated with (5-fluoro-2,4-dioxo-3,4-dihydropyrimidin1(2H)-yl)methyl-2-((S)-2-((2S,3R)-3-amino-2-hydroxy-4-phenylbut-anamido)-4-methylpentanamido)acetate hydrochloride assessed as carboxylesterase-mediated compound formation at 80 mg/kg, iv by HPLC-MS/MS analysis; format: ADME, organism-based; details: in vivo
[7] = Volume of distribution during elimination phase in Wistar rat at 80 mg/kg, iv after 0.05 to 24 hrs by HPLC-MS/MS analysis; format: ADME, organism-based; details: in vivo, read-out: Vz
[8] = AUC (0 to infinity) in Wistar rat at 80 mg/kg, iv after 0.05 to 24 hrs by HPLC-MS/MS analysis; format: ADME, organism-based; set-up: dose 80 mg/kg, time infinity, route intravenous; details: in vivo
[9] = (§2) Terminal Half life in Wistar rat at 80 mg/kg, iv after 0.05 to 24 hrs by HPLC-MS/MS analysis; format: ADME, organism-based; details: Wistar, in vivo, read-out: beta t1/2 (converted)
Rattus norvegicus [10] = assay: as §1; format: ADME, organism-based; details: in vivo
Thoracic aorta = assay: Antiangiogenic activity in Wistar rat thoracic aorta ring assessed as inhibition of microvessels sprouting at 20 ug/ml treated every other day for 9 days; format: functional, tissue-based
Mus musculus [11] = assay: Toxicity in Kunming mouse xenografted with 5-FU-resistant […] H22 cells assessed as body weight loss at 82 mg/kg, iv measured for 14 days during compound dosing; format: organism-based; details: in vivo, 336 h
PLC-PRF-5 [12] = assay: Induction of apoptosis in human PLC/PRF/5 cells assessed as necrotic cells at 20 uM after 48 hrs by annexin-V-FITC/propidium iodide staining-based flow cytometric method (reference value: 0.106%); format: functional
PLC-PRF-5 [13] = assay: Induction of reactive oxygen species formation in human PLC/PRF/5 cells at 10 uM by DCF-DA staining-based flow cytometric method; format: functional, cell-based; details: TDE = time-dependent effect
PLC-PRF-5 [14] = assay: Downregulation of CD13 expression in human PLC/PRF/5 cells at 10 uM after 48 hrs by flow cytometric method; format: functional, cell-based
H22 [15] = assay: Antitumor activity against 5-FU-resistant […] cells xenografted in Kunming mouse at 82 mg/kg, iv after 14 days; format: functional, organism-based
[16] = Antiproliferative activity against human H7402 cells after 48 hrs by MTT assay; details: H7402, 48 h
A549 = assay: Antiproliferative activity against human A549 cells after 48 hrs by MTT assay; details: A549, 48 h
HCT-116 = assay: cells; details: Homo sapiens, HCT-116, 48 h
PLC-PRF-5 [17] = assay: Induction of apoptosis in human PLC/PRF/5 cells assessed as early apoptotic cells at 20 uM after 48 hrs by annexin-V-FITC/propidium iodide staining-based flow cytometric method (reference value: 5.82%); format: functional
U-937 = assay: cells; details: Homo sapiens, U-937, 48 h
Description: Antiproliferative activity against human U937 cells after 48 hrs by MTT assay

PLC-PRF-5 [18] = assay: Induction of apoptosis in human PLC/PRF/5 cells assessed as late apoptotic cells at 20 uM after 48 hrs by annexin-V-FITC/propidium iodide staining-based flow cytometric method (reference value: 0.341%); format: functional
[19] = Drug metabolism in Wistar rat plasma assessed as carboxylesterase-mediated 5-FU formation at 80 mg/kg, iv by HPLC-MS/MS analysis; format: ADME, organism-based; details: in vivo
Mus musculus [20] = assay: Toxicity in Kunming mouse xenografted with 5-FU-resistant […] H22 cells assessed as mortality at 82 mg/kg, iv after 14 days; format: organism-based; details: in vivo, 336 h
[21] = Drug metabolism in Wistar rat plasma assessed as peptidase-mediated ubenimex formation at 80 mg/kg, iv by HPLC-MS/MS analysis; format: ADME, organism-based; details: in vivo
H22 [22] = assay: Antimetastatic activity in […] cells xenografted in iv dosed mouse assessed as decrease in lung metastasis nodus number administered 5 days followed by 2 days of withdrawal; format: functional, organism-based
PLC-PRF-5 [23] = assay: Anticlonogenic activity against human PLC/PRF/5 cells after 2 weeks by Giemsa staining-based inverted microscopic method; format: functional, cell-based
[24] = Drug metabolism in human plasma assessed as 5-FU formation at 4 mg/ml after 8 hrs by HPLC method; format: ADME, cell-free
H22 [25] = assay: Antitumor activity against […] cells xenografted in iv dosed mouse administered 5 days per week for 2 weeks; format: functional, organism-based
[26] = Drug metabolism in Wistar rat plasma assessed as carboxylesterase-mediated 2-((S)-2-((2S,3R)-3-amino-2-hydroxy-4-phenylbutanamido)-4-methylpentan-amido)-acetic acid formation at 80 mg/kg, iv by HPLC-MS/MS analysis; format: ADME, organism-based; details: in vivo
U-266 = assay: Antiproliferative activity against human U266 cells after 48 hrs by MTT assay; details: U-266, 48 h
HepG2 = assay: cells; details: Homo sapiens, HepG2, 48 h
Homo sapiens = species: Homo sapiens; assay: Antiinvasive activity in human ES2 cells at 5 ug/ml after 24 hrs by transwell assay; format: functional, cell-based
PLC-PRF-5 [27] = assay: Induction of apoptosis in human PLC/PRF/5 cells assessed as viable cells at 20 uM after 48 hrs by annexin-V-FITC/propidium iodide staining-based flow cytometric method (reference value: 93.7%); format: functional; details: PLC-PRF-5, 48 h, read-out: Activity
Rattus norvegicus [28] = assay: as §2; format: ADME, organism-based; details: in vivo

Question: For `CC(C)C[C@H](NC(=O)[C@@H](O)[C@H](N)Cc1ccccc1)C(=O)NCCC(=O)OCn1cc(F)c(=O)[nH]c1=O`, which IC50 (PLC-PRF-5 [1]) is on record?
Answer: 59 µM

Question: And the IC50 (Aminopeptidase N)?
Answer: 0.68 µM

Question: What about the IC50 (cells) of the same molecule?
Answer: 131 µM

Question: Which results are given for `CC(C)C[C@H](NC(=O)[C@@H](O)[C@H](N)Cc1ccccc1)C(=O)NCC(=O)O.Cl`?
Answer: MRT inf [2]: 3.22 h; VRT (Rattus norvegicus [3]): 3.797 hr2; Cmax [4]: 8570 ng/mL; clearance [5]: 36.8 mL/min/kg; Drug metabolism [6]: Metabolite_Detected; IC50 (Aminopeptidase N): 0.6 µM; Vd [7]: 3.93 L/kg; AUC(0-inf) [8]: 36200 ng·h/mL; half-life [9]: 1.23 h

Question: With `CC(C)C[C@H](NC(=O)[C@@H](O)[C@H](N)Cc1ccccc1)C(=O)NCC(=O)OCn1cc(F)c(=O)[nH]c1=O.Cl` as the molecule, how does the MRT (Rattus norvegicus [10]) read?
Answer: 2.576 h

Question: And the Activity (Thoracic aorta)?
Answer: Active

Question: What about the Activity (Mus musculus [11]) of the same molecule?
Answer: Non-Toxic

Question: And the Activity (PLC-PRF-5 [12])?
Answer: 0%

Question: And the Activity (PLC-PRF-5 [13])?
Answer: Tde

Question: And the Activity (PLC-PRF-5 [14])?
Answer: Active

Question: And the Activity (H22 [15])?
Answer: Active

Question: And the IC50 [16]?
Answer: 19.9 µM

Question: And the IC50 (A549)?
Answer: 15.3 µM

Question: And the IC50 (HCT-116)?
Answer: 26 µM

Question: And the Activity (PLC-PRF-5 [17])?
Answer: 24.2%

Question: What about the IC50 (U-937) of the same molecule?
Answer: 10.2 µM

Question: And the Activity (PLC-PRF-5 [18])?
Answer: 4.69%

Question: And the IC50 (PLC-PRF-5 [1])?
Answer: 16.5 µM

Question: And the Drug metabolism [19]?
Answer: Metabolite_Detected

Question: And the Activity (Mus musculus [20])?
Answer: Non-Toxic

Question: What about the VRT (Rattus norvegicus [3]) of the same molecule?
Answer: 4.423 hr2

Question: And the Drug metabolism [21]?
Answer: Metabolite_Detected

Question: And the Activity (H22 [22])?
Answer: Dose-dependent effect

Question: What about the Cmax [4] of the same molecule?
Answer: 5870 ng/mL

Question: What about the Activity (PLC-PRF-5 [23]) of the same molecule?
Answer: Dose-dependent effect

Question: What about the Drug metabolism [24] of the same molecule?
Answer: Metabolite_Detected

Question: What about the clearance [5] of the same molecule?
Answer: 90.5 mL/min/kg

Question: And the Activity (H22 [25])?
Answer: Dose-dependent effect

Question: What about the Drug metabolism [26] of the same molecule?
Answer: Metabolite_Detected

Question: What about the IC50 (U-266) of the same molecule?
Answer: 31.6 µM

Question: What about the IC50 (Aminopeptidase N) of the same molecule?
Answer: 0.18 µM

Question: And the IC50 (HepG2)?
Answer: 14.2 µM

Question: What about the Activity (Homo sapiens) of the same molecule?
Answer: Active

Question: And the viability at 20 µM (PLC-PRF-5 [27])?
Answer: 71.1%

Question: What about the IC50 (cells) of the same molecule?
Answer: 23.5 µM

Question: And the Vd [7]?
Answer: 6.23 L/kg

Question: What about the AUC(0-inf) [8] of the same molecule?
Answer: 14700 ng·h/mL

Question: And the “beta t1/2” value (Rattus norvegicus [28])?
Answer: 0.795 h

Question: With `CC(C)C[C@H](NC(=O)[C@@H](O)[C@H](N)Cc1ccccc1)C(=O)NCCCC(=O)OCn1cc(F)c(=O)[nH]c1=O` as the molecule, how does the IC50 (PLC-PRF-5 [1]) read?
Answer: 53 µM

Question: And the IC50 (Aminopeptidase N)?
Answer: 0.69 µM

Question: And the IC50 (cells)?
Answer: 110 µM
